The results in this text go back to US8034831B2, “Methods for the treatment and management of myeloproliferative diseases using 4-(amino)-2-(2,6-Dioxo(3-piperidyl)-isoindoline-1,3-dione in combination with other therapies” (Celgene Corporation, priority 2002, dated 2011).

In the test the test system is myeloproliferative diseases. Briefly: Treatment of patients with myeloproliferative diseases. In kind it is in vivo, human. As to conditions: for clinical outcome of therapy (spleen, blood counts, constitutional symptoms): therapy with the JAK or HDAC inhibitor, patients. The method, then:
4-(Amino)-2-(2,6-dioxo(3-piperidyl))-isoindoline-1,3-dione (Pomalidomide or Actimid™) is orally administered to patients with myeloproliferative diseases in an amount of 0.1 to 10 mg per day in combination with prednisone, JAK1 inhibitor (e.g., INCB018424), JAK2 inhibitor (e.g., SB11518, XL019, TG101348, and INCB018424), FLT3 inhibitor (e.g., TG101348), BCL2 inhibitor (e.g., GX15-070MS) and/or HDAC inhibitor (e.g., ITF2357).

As for `Nc1cccc2c1C(=O)N(C1CCC(=O)NC1=O)C2=O` (stereo not shown) [4-(Amino)-2-(2,6-dioxo(3-piperidyl))-isoindoline-1,3-dione], the “efficacy in treating myeloproliferative diseases” value (oral, 0.1 to 10 mg per day, in combination with prednisone, JAK1, JAK2, FLT3, BCL2 and/or HDAC inhibitor) is “effective in treating myeloproliferative diseases”.

On to `N#CC[C@H](C1CCCC1)n1cc(-c2ncnc3[nH]ccc23)cn1` [INCB018424], for which the “clinical outcome of therapy (spleen, blood counts, constitutional symptoms)” value (“clinical outcome of therapy” below) is “dramatic spleen shrinkage and improvement in constitutional symptoms”.

Turning to `CCN(CC)Cc1ccc2cc(COC(=O)Nc3ccc(C(=O)NO)cc3)ccc2c1` [ITF2357], the “clinical outcome of therapy” value was “improvement in constitutional symptoms, spleen size and some hematologic responses”.

Take `O=C(Nc1ccc(-c2ccnc(Nc3ccc(N4CCOCC4)cc3)n2)cc1)C1CCCN1` (stereo not shown) [XL019]: the “clinical outcome of therapy” value is “reductions in splenomegaly and leukocytosis, stabilization of hemoglobin counts, improvements in blast counts, and resolution or improvement in generalized constitutional symptoms”.
